EP4653444A1, “FUSED TRICYCLIC COMPOUND AS KINASE INHIBITOR” (Hangzhou Innogate Pharma Co., Ltd., priority 2023, dated 2024)

Legend:
FAK kinase = FAK kinase (Homo sapiens, UniProt Q05397); experiment: FAK kinase activity inhibition assay, method A (HTRF) and method B (Lantha screen); type: biochemical
Protocol: The HTRF method was used to evaluate the inhibitory activity of the compounds against FAK kinase. […]. The reaction conditions were: FAK kinase at 0.1 ng/µL; ATP 10 µM; substrate concentration 1 µM. Compounds were serially diluted in DMSO and shaken on a shaker for 20 minutes. Prepare 2× kinase using 1× reaction buffer. Transfer 25 nL compound to a 384-well plate using Echo 655. Add 2.5 µL kinase per well. Seal the plate with sealing film, centrifuge at 1000 rpm for 60 seconds, and incubate at 25°C for 12 hours. Prepare 2× ATP/substrate mix using 1× enzyme reaction buffer and add 2.5 µL 2× ATP/substrate mix per well. Seal the plate with sealing film, centrifuge at 1000 rpm for 60 seconds, and incubate at 25°C for 50 minutes. Prepare 2×XL665 & antibody solution using HTRF detection buffer, and add 5 µL per well. Incubate at 25°C for 60 minutes. Read fluorescence at 620 nm (Cryptate) and 665 nm (XL665). Calculate the ratio per well (Ratio_665/620 nm). % Inhibition = 100% - [(Compound Ratio - Positive Control Ratio)/ (Negative Control Ratio - Positive Control Ratio)] × 100%. IC50 values (half-maximal inhibitory concentration) were calculated by nonlinear regression using GraphPad Prism 7.0. Y = Bottom + (Top - Bottom)/ (1 + 10^ ((LogIC50 - X) × Hill Slope)), where X is the log of compound concentration and Y is the % inhibition.
The Lantha screen assay was used to evaluate the FAK kinase inhibitory activity. Compounds were dissolved in 100% DMSO at 10 mM stock concentration. Prepare 1× kinase buffer (25 mM HEPES, pH 7.5, 0.01 mM Triton, 0.5 mM EGTA, 0.01% Brij-35). Dilute compounds in a gradient, and transfer 5 µL compound into the reaction plate. Prepare 2× kinase solution with 1× Kinase buffer. Add 5 µL kinase solution to compound and positive control wells, and 5 µL 1× Kinase buffer to negative control wells. Mix reaction plate by shaking. Prepare 4× ATP/Fluorescein-polyGT substrate mix with 1× Kinase buffer. Add 2.5 µL substrate solution to initiate the reaction. Shake and incubate at room temperature for 30 minutes. Prepare 2× detection reagent (2 nM antibody, 10 mM EDTA) and add 10 µL per well to stop the reaction. Briefly centrifuge, mix, and incubate for 60 minutes. Read fluorescence at 340 nm excitation and 520 nm/495 nm emission using EnVision. Collect data and calculate 520 nm/495 nm ratio. Calculate the inhibition percentage using the formula: % Inhibition = (Max - Sample Ratio)/(Max - Min) × 100, where min is the mean of negative control wells (no enzyme activity), and max is the mean of positive control wells (DMSO-inhibited conversion rate).Use XLFit Excel add-in version 5.4.0.8 to determine the IC50 values of each compound against the enzyme activity: Y = Bottom + (Top - Bottom)/(1 + (IC50/X)^HillSlope).

FLT3 = target: T1, FLT3 (Homo sapiens, UniProt P36888); experiment: FLT3 kinase activity inhibition assay (Mobility shift assay); type: biochemical
T1 sequence (P36888 27-993): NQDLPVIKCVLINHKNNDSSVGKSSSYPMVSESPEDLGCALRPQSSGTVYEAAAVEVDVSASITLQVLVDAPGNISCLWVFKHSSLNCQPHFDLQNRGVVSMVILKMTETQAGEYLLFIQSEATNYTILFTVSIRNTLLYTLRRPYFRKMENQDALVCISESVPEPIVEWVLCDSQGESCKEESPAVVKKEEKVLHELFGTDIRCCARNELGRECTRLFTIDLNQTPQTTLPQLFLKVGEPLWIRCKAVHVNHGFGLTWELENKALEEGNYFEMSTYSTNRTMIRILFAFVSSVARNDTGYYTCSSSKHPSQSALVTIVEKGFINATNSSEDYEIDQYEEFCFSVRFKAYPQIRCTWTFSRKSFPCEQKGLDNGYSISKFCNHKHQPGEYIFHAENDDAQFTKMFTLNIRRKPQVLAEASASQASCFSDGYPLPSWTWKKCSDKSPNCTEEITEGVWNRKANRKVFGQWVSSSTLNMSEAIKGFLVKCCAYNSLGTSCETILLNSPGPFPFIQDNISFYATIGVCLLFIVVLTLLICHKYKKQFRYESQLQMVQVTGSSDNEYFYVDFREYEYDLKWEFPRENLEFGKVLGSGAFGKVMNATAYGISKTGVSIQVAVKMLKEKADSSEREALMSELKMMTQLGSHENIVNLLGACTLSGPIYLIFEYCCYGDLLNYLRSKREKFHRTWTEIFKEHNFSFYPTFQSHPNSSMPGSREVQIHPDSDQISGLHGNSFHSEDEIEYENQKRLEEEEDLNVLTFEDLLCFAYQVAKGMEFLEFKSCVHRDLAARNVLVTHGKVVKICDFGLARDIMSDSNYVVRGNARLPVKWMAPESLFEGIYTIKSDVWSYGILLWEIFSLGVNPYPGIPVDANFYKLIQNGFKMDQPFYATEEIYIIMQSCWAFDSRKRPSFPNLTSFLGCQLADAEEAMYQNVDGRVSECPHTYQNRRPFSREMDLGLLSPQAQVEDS
Protocol: Testing compound inhibitory activity against FLT3 and AXL kinases using Mobility shift assay. Compounds were dissolved in 100% DMSO to prepare 10 mM stock solutions. Prepare 1× Kinase Buffer. Test compounds were serially diluted in 5-fold gradients, and 250 nL of 100× final concentration compounds were transferred to destination plate 3573 using an Echo 550 liquid handler. A 2.5× final concentration kinase solution was prepared in 1× Kinase Buffer. Then, 10 µL of the 2.5× kinase solution was added to both compound wells and positive control wells, while 10 µL of 1× Kinase Buffer was added to negative control wells. The plate was centrifuged at 1000 rpm for 30 seconds, mixed by orbital shaking, and incubated at room temperature for 10 minutes. A 5/3× final concentration mixture of ATP and Kinase Substrate 25 was prepared in 1× Kinase Buffer. The reaction was initiated by adding 15 µL of the 5/3× ATP/substrate mixture. The 384-well plate was centrifuged at 1000 rpm for 30 seconds, mixed by shaking, and incubated at room temperature for 120 minutes. The kinase reaction was terminated by adding 30 µL stop solution, followed by centrifugation at 1000 rpm for 30 seconds and mixing. Conversion rates were measured using a Caliper EZ Reader. %Inhibition = (Conversion%_max - Conversion%_sample)/(Conversion%_max - Conversion%_min) × 100. Where: Conversion%_sample: Conversion rate reading of test samples; Conversion%_min: Mean value of negative control wells (representing conversion rate without enzyme activity); Conversion%_max: Mean value of positive control wells (representing conversion rate without compound inhibition). Dose-response curves were plotted with log(concentration) as the X-axis and percentage inhibition as the Y-axis. Curve fitting was performed using GraphPad Prism 5 software with the "log(inhibitor) vs. response - Variable slope" model to derive IC50 values for each compound's enzyme inhibitory activity. The fitting formula was: Y = Bottom + (Top - Bottom)/(1 + 10^((LogIC50 - X) × HillSlope)).

HPK1 kinase = HPK1 kinase (Homo sapiens, UniProt Q92918); experiment: HPK1 kinase activity inhibition assay (Mobility shift assay); type: biochemical
HPK1 kinase, sequence (Q92918 whole entry): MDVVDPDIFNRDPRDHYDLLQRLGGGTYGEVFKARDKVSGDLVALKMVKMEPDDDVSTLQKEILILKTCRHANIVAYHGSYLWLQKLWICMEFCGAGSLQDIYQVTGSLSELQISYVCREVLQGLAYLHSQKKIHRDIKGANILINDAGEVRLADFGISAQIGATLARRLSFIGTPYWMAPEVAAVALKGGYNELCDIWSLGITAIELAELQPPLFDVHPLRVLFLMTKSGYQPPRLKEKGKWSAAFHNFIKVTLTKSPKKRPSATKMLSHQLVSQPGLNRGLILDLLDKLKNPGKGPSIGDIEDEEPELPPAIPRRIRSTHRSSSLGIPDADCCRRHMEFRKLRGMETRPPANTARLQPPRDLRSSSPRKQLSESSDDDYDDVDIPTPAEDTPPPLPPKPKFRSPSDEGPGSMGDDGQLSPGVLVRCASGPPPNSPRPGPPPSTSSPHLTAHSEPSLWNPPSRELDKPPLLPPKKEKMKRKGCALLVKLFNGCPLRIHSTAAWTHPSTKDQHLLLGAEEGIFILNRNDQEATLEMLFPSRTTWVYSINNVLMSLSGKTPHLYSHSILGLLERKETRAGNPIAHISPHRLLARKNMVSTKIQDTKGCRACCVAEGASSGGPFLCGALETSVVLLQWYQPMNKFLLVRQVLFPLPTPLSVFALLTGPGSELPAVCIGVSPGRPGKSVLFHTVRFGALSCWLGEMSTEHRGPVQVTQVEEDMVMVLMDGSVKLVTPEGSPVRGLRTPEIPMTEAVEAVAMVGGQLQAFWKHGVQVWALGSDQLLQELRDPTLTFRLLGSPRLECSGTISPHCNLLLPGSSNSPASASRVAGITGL
Protocol: Measure compound inhibitory activity against HPK1 kinase using Mobility shift assay. Compounds were dissolved in 100% DMSO to prepare 10 mM stock solutions. 1× Kinase buffer was prepared. Test compounds were serially diluted in 5-fold gradients, and 250 nL of 100× final concentration compounds were transferred to destination plate 3573 using an Echo 550 liquid handler. A 2.5× final concentration kinase solution was prepared in 1× Kinase Buffer. 10 µL of the 2.5× kinase solution was added to both compound wells and positive control wells, while 10 µL of 1× Kinase buffer was added to negative control wells. The plate was centrifuged at 1000 rpm for 30 seconds, mixed by orbital shaking, and incubated at room temperature for 10 minutes. A 5/3× final concentration mixture of ATP and Kinase substrate 25 was prepared in 1× Kinase buffer. 15 µL of the 5/3× ATP/substrate mixture was added to initiate the reaction. The 384-well plate was centrifuged at 1000 rpm for 30 seconds, mixed by shaking, and incubated at room temperature for 120 minutes. The kinase reaction was terminated by adding 30 µL stop solution, followed by centrifugation at 1000 rpm for 30 seconds and mixing. Conversion rates were measured using a Caliper EZ Reader. The inhibition percentage was calculated as: %Inhibition = (Conversion%_max - Conversion%_sample)/(Conversion%_max - Conversion%_min) × 100. Where Conversion%_sample: Conversion rate reading of test samples; Conversion%_min: Mean value of negative control wells (representing conversion rate without enzyme activity); Conversion%_max: Mean value of positive control wells (representing conversion rate without compound inhibition). Dose-response curves were plotted with log(concentration) as the X-axis and percentage inhibition as the Y-axis. Curve fitting was performed using GraphPad Prism 5 software with the "log(inhibitor) vs. response - Variable slope" model to derive IC50 values for each compound's enzyme inhibitory activity. The fitting formula was: Y = Bottom + (Top - Bottom)/(1 + 10^((LogIC50 - X) × HillSlope)).

in vivo = settings: rat, po, 3 mg/kg

FAK kinase, sequence (Q05397 whole entry): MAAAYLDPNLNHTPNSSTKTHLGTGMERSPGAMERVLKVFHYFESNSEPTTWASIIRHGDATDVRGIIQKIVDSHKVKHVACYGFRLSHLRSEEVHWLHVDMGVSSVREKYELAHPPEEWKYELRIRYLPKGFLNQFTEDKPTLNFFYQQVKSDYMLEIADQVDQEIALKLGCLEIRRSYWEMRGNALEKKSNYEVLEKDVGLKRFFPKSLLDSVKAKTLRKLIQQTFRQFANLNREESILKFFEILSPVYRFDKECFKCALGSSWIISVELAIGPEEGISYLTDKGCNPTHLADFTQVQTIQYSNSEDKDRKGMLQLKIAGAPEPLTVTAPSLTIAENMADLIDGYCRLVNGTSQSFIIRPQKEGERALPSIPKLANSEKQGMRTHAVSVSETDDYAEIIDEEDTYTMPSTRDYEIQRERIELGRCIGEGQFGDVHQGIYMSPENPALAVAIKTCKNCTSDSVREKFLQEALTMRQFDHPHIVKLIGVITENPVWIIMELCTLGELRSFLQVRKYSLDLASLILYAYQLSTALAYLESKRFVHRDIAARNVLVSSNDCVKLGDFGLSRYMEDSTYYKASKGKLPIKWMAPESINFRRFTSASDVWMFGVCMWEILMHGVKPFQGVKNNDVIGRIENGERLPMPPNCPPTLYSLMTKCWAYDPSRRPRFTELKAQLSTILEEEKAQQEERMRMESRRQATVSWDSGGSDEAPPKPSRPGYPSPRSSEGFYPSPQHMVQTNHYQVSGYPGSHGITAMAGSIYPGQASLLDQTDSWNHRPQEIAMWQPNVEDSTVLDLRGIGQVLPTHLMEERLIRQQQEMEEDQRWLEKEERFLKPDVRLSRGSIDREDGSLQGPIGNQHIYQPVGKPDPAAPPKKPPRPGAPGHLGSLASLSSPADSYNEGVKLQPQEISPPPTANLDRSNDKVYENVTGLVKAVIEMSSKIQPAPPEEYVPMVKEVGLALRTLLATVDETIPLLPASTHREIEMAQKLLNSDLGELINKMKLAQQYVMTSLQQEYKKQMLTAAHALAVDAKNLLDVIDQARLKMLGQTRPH

AUC(0-t) at 24 h (in vivo) | Cmax (in vivo) | Tmax (in vivo) | half-life (in vivo) | Compound | IC50 (FAK kinase) | IC50 (FLT3) | IC50 (HPK1 kinase)
– | – | – | – | CNC(=O)c1ccccc1Nc1cc(Nc2cc3c(cc2OC)N2CCN(C4CCOCC4)C[C@@H]2CO3)ncc1C(F)(F)F [Compound D1R] | < 3 nM | < 30 nM | < 30 nM
1460 ng·h/mL | 487 ng/mL | 0.5 h | 1.76 h | CCc1cc2c(cc1Nc1ncc(C(F)(F)F)c(NCCCN3CCOCCC3=O)n1)OC[C@H]1CN(C3COC3)CCN21 [Compound A12R] | – | – | –
